Test system: S. aureus biofilm
Test: Model for studying S. aureus biofilm on reconstructed epidermises (scanning electron microscopy)
Type: cell-based, Staphylococcus aureus (MRSA; ATCC 33591)
Settings: 24 hours after colonization
Method: The test products (P1, P5 or P8) or 5% xylitol (positive control for inhibition of biofilm formation) were applied topically to reconstructed epidermises at a rate of 30 μL/epidermis, after undergoing slight surface abrasion.
After incubation overnight, the products were removed by rinsing and a 2·10^6 cfu inoculum of Staphylococcus aureus (methicillin-resistant S. aureus, MRSA; ATCC 33591) was applied to the surface of the reconstructed epidermises.
Biofilm formation and the effect of the product thereon were observed visually by scanning electron microscopy (SEM) 6 and 24 hours after colonization.

OC[C@@H](O)[C@H](O)[C@@H](O)CO [xylitol]
S. aureus biofilm formation on the surface of epidermises, observed by SEM (in words): did not produce biofilm

From US11604184B2, “Juvenile atopic dermatitis models” (Laboratoires Expanscience, priority 2016, dated 2023)
